For data set [1], the system named is NAADP-induced calcium release in intact sea urchin eggs. Kind of data set: Calcium release on photolysis of caged NAADP in intact sea urchin eggs. Format: cell-based, Lytechinus pictus. The text has this: Sea urchin eggs were microinjected with a solution containing the calcium reporter dye, calcium green dextran, together with caged NAADP. Fluorescence was then imaged on a Leica confocal microscope using an excitation wavelength of 488 nm. In the control egg [see FIG. 6 A] a brief UV flash photolysed a proportion of the caged NAADP and evoked a large calcium transient.
Sea urchin eggs of Lytechinus pictus were obtained by intracoelomic injection of 0.5 M KCl shed into artificial sea water (in mM, NaCl 435, MgCl2 40, MgSO4 15, CaCl2 11, KCl 10, NaHCO3 2.5, EDTA 1), dejellied by passing through […] nylon mesh, and then washed twice by centrifugation. Eggs were transferred to polylysine-coated glass coverslips for microinjection and microscopy. Oregon Green 488 BAPTA (1,2-bis(2-aminophenoxy)ethane-N,N,N9,N9-tetraacetic acid dextran; Molecular Probes) was pressure-microinjected (Picospritzer; World Precision Instruments). The calcium-sensitive dye was imaged by laser-scanning confocal microscopy (Leica model TCS NT) using the 488-nm line of an argon ion laser for excitation, and the emission was long passfiltered (515 nm) and detected with a photomultiplier tube. Caged NAADP (^29P-(1-(2-nitrophenyl)ethyl) NAADP; Molecular Probes) was purified further by high performance liquid chromatography to remove small amounts of contaminating free NAADP. […]

The test system of another data set is pancreatic acinar cells. Kind of data set: CCK-induced oscillations of Ca2+ in pancreatic acinar cells. Format: cell-based, mouse. As to conditions: for CCK-evoked calcium spiking/oscillations: external application, 1 mM, pre- and post-applied with respect to CCK (5 pM). As to the method: Pancreatic acinar cells were seeded onto poly-lysine-coated number 1 glass coverslips and loaded by incubating cells with 1-5 μM fura-2 acetoxymethylester (Molecular Probes; Leiden, Holland) for 60 min at room temperature. After the loading period, cells were subsequently washed and maintained in buffer at room temperature and used immediately. Cells were excited alternately with 340 and 380 nm light (emission 510 nm), and ratio image of clusters were recorded every 4-5 s, using a 12-bit CCD camera (MicroMax; Princeton Instruments, NJ). All experiment were conducted at room temperature. CMA008 (1-Carbamoylmethyl-3-carboxy-pyridinium iodide) is dissolved in 50% DMSO. Final concentration of DMSO is 0.5% in the solution (composition in mM: 140 NaCl, 4.7 KCl, 1 CaCl2, 1.13 MgCl2, 10 HEPES, 10 Glucose, pH adjusted to 7.2)
Pancreatic acinar cells were isolated from mice and dispersed by collagenase treatment. Cells were incubated with fura-2 AM for 30 min and washed before being imaged on a Metafluor system. The cells were alternately excited at 340/380 nm and emitted light collected at around 510 nm. The ratio of the intensities of emitted light at the two excitation wavelengths were calculated, converted to free calcium concentrations, and plotted again time.
Pancreatic acinar cells were seeded onto poly-lysine-coated number 1 glass coverslips and loaded with calcium indicator by incubating cells with […] fura-2 acetoxymethylester (Molecular Probes; Leiden, Holland) for 60 min at room temperature. After the loading period, cells were subsequently washed and maintained in buffer at room temperature and used immediately. Cells were excited alternately with 340 and 380 nm light (emission 510 nm), and ratio image of clusters 5 were recorded every 4-5 s, using a 12-bit CCD camera (MicroMax; Princeton Instruments, NJ).
All experiments were conducted at room temperature. CMA008 (1-Carbamoylmethyl-3-carboxy-pyridinium iodide) was dissolved in 50% DMSO. Final concentration of DMSO was 0.5% in the solution (composition in mM: 140 NaCl, 4.7 KCl, 1 CaCl2, 1.13 MgCl2, 10 HEPES, 10 Glucose, pH adjusted to 7.2). The inhibition of CCK-evoked calcium spiking, both pre- and post-applied with respect to CCK (5 pM), was consistent with inhibition of NAADP-induced calcium release by CMA008 (1 mM). The biological data for these experiments is presented in FIG. 7 (see also the description of the figures above).

A further data set concerns NAADP binding site. Kind of data set: [32P]NAADP binding to sea urchin egg homogenate. The method, then:
[^32P]NAADP binding to 0.5% sea urchin egg homogenate.
Competitive CMA008 (1-Carbamoylmethyl-3-carboxy-pyridinium iodide) displacement of [^32P]NAADP (0.2 nM). Samples diluted in GluIM (intracellular medium), pre-incubated with indicated concentration of CMA008 for 10 minutes, then 0.2 nM [^32P]NAADP added and incubated at room temperature for a further 15 mins. Samples filtered through Whatman GF/B filters to separate bound and free [^32P]NAADP ligand. Non specific binding is defined by incubation of the homogenate in the presence of 10 μM NAADP. n=2. Data expressed as a fraction of total binding.
2.5% sea urchin egg homogenate was diluted into GluIM pre-incubated with indicated concentration of CMA008 for 10 minutes at room temperature (A=100 nM, B=1 nM, C=10 μM). Subsequently, [^32P]NAADP was added and samples incubated for a further 15 minutes at room temperature. Samples were filtered through Whatman GF/B filters to separate bound and free [^32P]NAADP ligand.

Data set [2] has as its system calcium mobilization by cADPR. Kind of data set: Calcium mobilization by cADPR in sea urchin egg homogenate. It is filed as biochemical. As to the method: (§1) Samples diluted to 2.5% in GluIM in the presence of regenerating system and kept at 17° C. with agitation for 3 hours to facilitate calcium uptake into stores. Calcium release was determined by measuring increase in Fluo-3 fluorescence at 526 nm. Data expressed as % of 250 nM NAADP calcium release in the absence of CMA008 (1-Carbamoylmethyl-3-carboxy-pyridinium iodide). […] CMA008 has no effect on the total calcium mobilization by IP3 or cADPR (insert) indicating the selectivity of this compound on the NAADP-sensitive release mechanism.
(§2) • Subcellular fractions: calcium concentrations are measured with fluo-3 (3 μM) at physiological temperatures, using cell homogenates or subcellular fractions in a fluorimeter (Perkin-Elmer LS-50B) at 506 nm excitation and 526 nm emission. • Intact cells: Injected or hydrolysed ester derivatives of calcium sensitive dye are imaged in intact cells by laser-scanning confocal microscopy (TCS NT, Leica) Images were processed with the software NIH Image to create a self-ratio by dividing each image (F) by an image acquired before stimulation (Fo). [drawing 13] wherein R1, R2 and R3 are as defined herein. I Preparation of Nicotinic Acid Derivatives [drawing 14]

For data set [3], the system named is calcium mobilization by IP3. Kind of data set: Calcium mobilization by IP3 in sea urchin egg homogenate. It is filed as biochemical. As to the method:
as §1, §2
(In general: A change in cytosolic calcium serves as a functional read-out for many receptors and channels.)

The subject of data set [4] is NAADP-sensitive release mechanism. Kind of data set: NAADP-mediated calcium release in sea urchin egg homogenate (Fluo-3). The note with it: 250 nM NAADP, 2.5% homogenate, read-out: IC50, inhibition of NAADP calcium mobilization. Format: biochemical. The method, then: as §1, §2
Data set [5] has as its system transfer experimental autoimmune encephalomyelitis (EAE) in Lewis rats. Kind of data set: Transfer experimental autoimmune encephalomyelitis (EAE). Format: in vivo, Lewis rat. As to conditions: 50 μmol/100 g body weight i.p. twice per day; day 3.5 to day 6. The source says: Transfer of MBP-specific CD4-positive T cells was used at day 0 to induce experimental autoimmune encephalomyelitis (EAE) in Lewis rats. Animals injected with PBS (vehicle) or nicotinic acid (control compound with structural similarities to BZ52) developed severe paralysis of tail and rear legs due to the inflammation. Clinical symptoms started day 3.5 and reached their maxima day 4 to 6 (or 6.5). Between day 3.5 and day 6, no difference between PBS and nicotinic acid was observed, whereas a beneficial effect of BZ52 was visible (FIG. 14).
Animals (6 per group, body weight approx. 150 g) were injected i.p. twice per day with either PBS (vehicle control), nicotinic acid (50 μmol/100 g body weight), or BZ 52 (50 μmol/100 g body weight). Clinical scores indicate the degree of paralysis of tail and legs. Data are presented as mean±SD from one representative experiment (n=6).
Animals (6 per group, body weight approx. 150 g) were injected i.p. twice per day with either PBS (vehicle control), nicotinic acid (50 μmol/100 g body weight), or BZ 52 (50 μmol/100 g body weight). […] Data are presented as mean±SD from one representative experiment (n=6).
5×10^6 activated MBP specific-GFP Tcells were transferred i.v. into recipient Lewis rats. Clinical EAE was graded in five scores: 0.5, loss of tail tonus; 1, tail paralysis; 2, gait disturbance; 3, hind limb paralysis; 4, tetraparesis; 5, death.
Animals' weight was measured twice a day.
In order to analyze the effect of BZ194 on encephalitogenic T cells during the effector phase of EAE we used retrovirally transduced MBP-specific T cells expressing the marker gene green fluorescent protein (TMBP-GFP cells).
Animals were treated for 5 d intraperitoneally with 500 μmol BZ194 or vehicle (DMSO).

Each structure is given as a SMILES string. Entries after “also recorded” stand apart in the source; their conditions may differ. Where a name gives a salt, the structure may show the parent alone.

What is called melting point is the temperature of the solid-liquid transition. For orientation: IC50 means the point on the concentration scale where inhibition reaches its midpoint.

Consider `CCN(CC)C(=O)C[n+]1cccc(C(=O)OC)c1` (as salt: iodide), for which the melting point is 163 to 165 °C.

Take `CCN(CC)C(=O)C[n+]1cccc(C(=O)O)c1` (as salt: iodide) [Example 10, 3-Carboxy-1-diethylcarbamoylmethyl-pyridinium; iodide]: the melting point lay within 97 to 100 °C.

Compound `O=C(O)c1ccc[n+](Cc2ccccc2)c1` (as salt: bromide) displayed a melting point of 203 to 205 °C.

Take `NC(=O)CC[n+]1cccc(C(=O)O)c1` (as salt: iodide) [Example 11, 1-(2-Carbamoyl-ethyl)-3-carboxy-pyridinium; iodide]: the melting point was 170 to 173 °C.

With `NC(=O)C[n+]1cccc(C(=O)O)c1` [CMA008, 1-Carbamoylmethyl-3-carboxy-pyridinium iodide], the “calcium release on photolysis of caged NAADP” value in data set [1] (CMA008 10 mM applied externally in sea water, NPE-NAADP 1 μM) is given as “blocks; also recorded: failed to induce”. In addition, the cell membrane permeation entry in data set [1] (inferred from activity of compound applied outside the cell) is “permeates the cell membrane”. The CCK-evoked calcium spiking result in the data set on pancreatic acinar cells (CMA008 1 mM added post-CCK (5 pM)) was “inhibition”. The resting calcium levels result with pancreatic acinar cells (CMA008 1 mM added pre-CCK) is given as “no apparent effect”. In addition, in the data set on pancreatic acinar cells (CMA008 1 mM added pre-CCK (5 pM)), the “response to CCK” value is “a much smaller response to CCK was seen, with a greatly reduced frequency”. The CCK-evoked calcium spiking/oscillations entry in the data set with pancreatic acinar cells is “inhibition”; with pancreatic acinar cells (listed as CM008), “inhibited or reduced”. In the data set with NAADP binding site (1 nM and 100 nM CMA008), the “effect on the Bmax” value is on record as “no effect”. In addition, the “Bmax (total specific binding of [32P]NAADP)” value with NAADP binding site (in the presence of 10 μM CMA008, 2.5% homogenate, 68.65%±2.7 in its absence) is recorded as 46.28%±2.61. In addition, the “effect on total calcium mobilization by cADPR” value in data set [2] was “no effect”. The “effect on total calcium mobilization by IP3” value in data set [3] is reported as “no effect”. Moreover, the IC50 in data set [4] amounted to 15.1 µM.

On to `O=C(O)c1cccnc1` [nicotinic acid, reference compound], for which the “effect on [32P]NAADP binding to egg membranes” value in the data set with NAADP binding site (up to 1 mM, 0.2 nM [32P]NAADP, 0.5% homogenate) is given as “without effect”. In addition, the “clinical symptoms (clinical score) vs PBS” value in data set [5] is “no difference”.

In turn, `COC(=O)c1ccc[n+](CCCC#N)c1` (as salt: iodide) gave a melting point of 167 to 170 °C.

As for `CCC[n+]1cccc(C(=O)O)c1` (as salt: iodide), the melting point lay in the range of 162 to 165 °C.

For the compound `COC(=O)c1ccc[n+](CCC(N)=O)c1` (as salt: iodide), the melting point was 98 to 100 °C.

Consider `CCN(CC)CC[n+]1cccc(C(=O)OC)c1` (as salt: iodide), for which the melting point lay in the range of 172 to 174 °C.

Source of the values: US20070105810A1, “THERAPEUTICS” (priority 2003, published 2007).
